Measurements: ChEMBL document CHEMBL5385978, “Discovery of novel SOS1 inhibitors using machine learning” (RSC Med Chem, 2024)

Tested on: SOS1-KRAS (Homo sapiens), Q07889+P01116 [G12C]
Experiment: Inhibition of his tagged SOS1/GST-tagged KRAS G12C mutant (unknown origin) protein-protein interaction at 25 ug/ml incubated for 2 hrs by HTRF assay relative to control
Format: protein-complex assay
Settings: dose 25.0 µg/ml

## CC(C)CCN1CCCN(c2nc(Cc3ccccc3)nc3c2ncn3-c2ccccc2)CC1
  inhibition: 2.1%

## CC(C)OCCCNC1CCN(c2ncc(NC(=O)c3ccccc3)cc2C(=O)O)CC1
  inhibition: 6.3%
